This is an account of results in patent US7294636B2, “Chemical compounds” (AstraZeneca AB, priority 2003, dated 2007).

The structures appear in SMILES notation.

recombinant human CCR5 receptor, sequence (P51681 whole entry): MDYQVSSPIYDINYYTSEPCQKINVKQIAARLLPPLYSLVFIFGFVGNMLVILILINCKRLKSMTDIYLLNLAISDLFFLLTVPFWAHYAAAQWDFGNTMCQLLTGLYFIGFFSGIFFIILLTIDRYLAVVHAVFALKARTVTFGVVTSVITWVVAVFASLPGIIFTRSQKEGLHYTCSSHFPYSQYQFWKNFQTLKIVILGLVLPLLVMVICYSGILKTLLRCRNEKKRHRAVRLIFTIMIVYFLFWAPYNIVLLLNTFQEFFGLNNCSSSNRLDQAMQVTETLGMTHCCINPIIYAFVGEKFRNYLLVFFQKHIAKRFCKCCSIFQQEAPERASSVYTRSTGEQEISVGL

The target in the test is recombinant human CCR5 receptor (Homo sapiens, UniProt P51681). As to the kind of experiment: in vitro radioligand binding assay, inhibition of MIP-1α binding (scintillation proximity). The note with it: displacement of 0.1 nM iodinated MIP-1α; membranes from Chinese hamster ovary cells expressing CCR5; negative log10 of IC50 (M); average if tested more than once. The procedure:
The ability of compounds to inhibit the binding of MIP-1α was assessed by an in vitro radioligand binding assay. Membranes were prepared from Chinese hamster ovary cells which expressed the recombinant human CCR5 receptor. These membranes were incubated with 0.1 nM iodinated MIP-1α, scintillation proximity beads and various concentrations of the compounds of the invention in 96-well plates. The amount of iodinated MP-1α bound to the receptor was determined by scintillation counting. Competition curves were obtained for compounds and the concentration of compound which displaced 50% of bound iodinated MIP-1α was calculated (IC50).
In Table III the results are presented as Pic50 values. […] If a compound was tested more than once then the data below is an average of the probative tests results.
On the technique in general: In a scintillation proximity assay essentially only radioactivity close to the scintillant gives light.
What is called IC50 is the midpoint of a concentration-inhibition curve. Turning to `CS(=O)(=O)c1ccc([C@@H](CCN2CCC(n3cnc4cc(S(C)(=O)=O)ccc43)CC2)c2cccc(F)c2)cc1` [Compound No. 1, (R)-1-{1-[3-(3-fluoro-phenyl)-3-(4-methanesulfonyl-phenyl)-propyl]-piperidin-4-yl}-5-methanesulfonyl-1H-benzoimidazole], the half-maximal inhibitory concentration (IC50) was 1e-09 M.

As for `Cc1nnc(C(C)C)n1C1CCN(CC[C@H](c2ccc(S(C)(=O)=O)cc2)c2cccc(F)c2)CC1` [Compound No. 2], the IC50 is 3.98e-08 M.

For the compound `CS(=O)(=O)c1ccc(Cc2noc(C3CCN(CC[C@@H](c4ccccc4)c4ccc(S(C)(=O)=O)cc4)CC3)n2)cc1` [Compound No. 3], the half-inhibitory concentration (IC50) is 1.26e-09 M.

Turning to `CS(=O)(=O)c1ccc([C@@H](CCN2CCC(c3nc(Cc4ccccc4)no3)CC2)c2ccccc2)cc1` [Compound No. 4], the half-maximal inhibitory concentration (IC50) was 1.58e-08 M.

On to `CS(=O)(=O)c1ccc([C@@H](CCN2CCC(n3cnc4cc(S(C)(=O)=O)ccc43)CC2)c2ccccc2)cc1` [Compound No. 5], for which the IC50 is 3.98e-09 M.

`CSc1ccc(Cc2noc(C3CCN(CCC(c4ccccc4)c4ccc(S(C)(=O)=O)cc4)CC3)n2)cc1` (stereo not shown) [Compound No. 6]: the half-maximal inhibitory concentration (IC50) is 6.31e-08 M.

For `CS(=O)(=O)c1ccc([C@@H](CCN2CCC(n3cnc4cc(S(C)(=O)=O)ccc43)CC2)c2ccsc2)cc1` [Compound No. 7], the IC50 is 1e-08 M.

With `CS(=O)(=O)c1ccc([C@@H](CCN2CCC(n3cnc4cc(S(C)(=O)=O)ccc43)CC2)c2cccs2)cc1` [Compound No. 8], the IC50 was 1e-08 M.

For `CS(=O)(=O)c1ccc([C@@H](CCN2CCC(n3cnc4cc(S(C)(=O)=O)ccc43)CC2)c2ccc(Cl)s2)cc1` [Compound No. 9], the IC50 is 2e-08 M.

For `CS(=O)(=O)c1ccc([C@@H](CCN2CCC(n3cnc4cc(S(C)(=O)=O)ccc43)CC2)c2cc(Cl)cs2)cc1` [Compound No. 10], the IC50 is 2e-08 M.

Take `CS(=O)(=O)c1ccc([C@@H](CCN2CCC(n3cnc4cc(S(C)(=O)=O)ccc43)CC2)c2cc(F)cc(F)c2)cc1` [Compound No. 11]: the 50% inhibitory concentration (IC50) was 1e-09 M.

Consider `Cc1nnc(C(C)C)n1C1CCN(CC[C@H](c2ccc(S(C)(=O)=O)cc2)c2cc(F)cc(F)c2)CC1` [Compound No. 12], for which the half-inhibitory concentration (IC50) is 2e-08 M.

Take `Cc1noc(C2CCN(CC[C@@H](c3ccccc3)c3ccc(S(C)(=O)=O)cc3)CC2)n1` [Compound No. 13]: the IC50 is 1.58e-07 M.
